We go through two compounds from patent US20230270826A1, “ANTIVIRAL USE OF L[…] GEFITINIB” (priority 2020, published 2023).

For assay [1], the system named is genes from the COVID-19 model. As to the kind of experiment: Transcription fingerprinting by 3' RNA-sequencing of nucleocapsid-stimulated cells. In kind it is cell-based, human.
The next assay has as its system interleukin 6 (IL-6). As to the kind of experiment: Cytokine release assay (IL-6) in PBMC stimulated with SARS-CoV2 proteins. In kind it is cell-based, human.
The mark [2] stands for this setting: compound effect vs nucleocapsid stimulation.

Regarding `COc1cc2ncnc(Nc3ccc(F)c(Cl)c3)c2cc1OCCCN1CCOCC1` [gefitinib], the “Expression of genes up- or down-regulated 2-fold by nucleocapsid (N) vs Mock” value in assay [1] (N+compound vs N, FIG. 4) is recorded as ““normalized” in their expression”. The “Regulation of genes up-regulated at time 4 h N vs Mock” value in assay [1] (N-compound vs N, 4 h, FIG. 4 boxplots) is “strongly down-regulated”. In assay [1] (setting [2]), the “Regulation of genes downregulated in nucleocapsid (N) stimulation vs Mock” value is on record as “upregulated” and the “Regulation of genes upregulated in nucleocapsid (N) stimulation vs Mock” value was “downregulated”. In addition, the “Immune modulation of interleukin 6 (IL-6) release” value in the assay on interleukin 6 (IL-6) (nucleocapsid (N) stimulation vs Mock, FIG. 1) is given as “stronger than by dexamethasone (DEX) alone”.
Regarding `Nc1cccc2c1C(=O)N(C1CCC(=O)NC1=O)C2=O` (stereo not drawn) [pomalidomide], the “Immune modulation of interleukin 6 (IL-6) release” value with interleukin 6 (IL-6) (spike (S) or spike trimer (St) stimulation vs Mock, GEF 0.5 μM and 5 μM, POM 100 ng/ml, FIG. 3) is “does not show immune modulation”.
